Read-outs that look alike come from different tables or passages of the source.

For this assay, the target named is T1, hTLR7 (Homo sapiens, UniProt Q9NYK1).
T1 construct: expressed in transfected cells; host or cells: HEK-Blue hTLR7 reporter cell line
T1 sequence (Q9NYK1 27-1049): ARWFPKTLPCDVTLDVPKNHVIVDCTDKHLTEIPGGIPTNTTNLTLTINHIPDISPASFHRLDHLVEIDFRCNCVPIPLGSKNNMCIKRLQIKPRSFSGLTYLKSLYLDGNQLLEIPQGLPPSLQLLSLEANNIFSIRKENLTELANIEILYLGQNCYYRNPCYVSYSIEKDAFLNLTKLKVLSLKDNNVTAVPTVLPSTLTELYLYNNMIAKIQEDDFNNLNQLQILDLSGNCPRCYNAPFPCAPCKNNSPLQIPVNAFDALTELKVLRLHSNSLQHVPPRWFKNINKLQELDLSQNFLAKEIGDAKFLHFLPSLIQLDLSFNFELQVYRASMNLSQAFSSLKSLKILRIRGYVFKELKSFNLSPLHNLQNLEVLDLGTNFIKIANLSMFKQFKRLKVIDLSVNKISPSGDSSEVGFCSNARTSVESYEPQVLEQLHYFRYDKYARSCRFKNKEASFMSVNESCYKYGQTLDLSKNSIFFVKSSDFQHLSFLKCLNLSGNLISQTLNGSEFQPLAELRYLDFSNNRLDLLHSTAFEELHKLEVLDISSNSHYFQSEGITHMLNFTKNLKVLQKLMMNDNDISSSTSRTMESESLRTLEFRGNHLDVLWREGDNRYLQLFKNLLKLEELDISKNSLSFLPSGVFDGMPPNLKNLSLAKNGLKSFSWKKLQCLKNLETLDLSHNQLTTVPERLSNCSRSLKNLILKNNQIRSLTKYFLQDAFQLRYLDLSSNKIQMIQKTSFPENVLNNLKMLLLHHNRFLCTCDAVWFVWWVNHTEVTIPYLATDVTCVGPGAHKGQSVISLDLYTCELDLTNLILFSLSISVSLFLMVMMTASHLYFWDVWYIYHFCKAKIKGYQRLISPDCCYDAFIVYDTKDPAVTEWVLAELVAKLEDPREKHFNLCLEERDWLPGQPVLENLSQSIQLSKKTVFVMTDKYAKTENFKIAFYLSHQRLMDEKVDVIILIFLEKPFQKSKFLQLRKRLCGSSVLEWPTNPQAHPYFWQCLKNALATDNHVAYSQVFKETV
The experiment in a line: HEK-Blue hTLR7 reporter assay (NF-kB-induced SEAP, Quanti-Blue). It counts as cell-based. On the procedure: HEK-Blue™ hTLR7 cells were incubated in HEK-Blue™ Detection medium and stimulated with increasing concentrations of TLR7 or TLR8 or TLR7/8 agonists. […] The EC50 was determined from dose-response curve using Prism Software.
(A reporter such as luciferase makes a cellular process visible.)

The mark [1] stands for this setting: Table 19, TLR7, drug-linkers with PEG shielding, read-out: EC50.
Where [2] appears, read: Table 18, TLR7, PEG shielding, read-out: EC50.

`CCCCOc1nc(N)c2[nH]c(=O)n(Cc3ccc(CN4CCC(CCNC(=O)[C@H](CCCCNC(=O)CCOCCOCCOCCOCCOCCOCCOCCOC)NC(=O)CON)CC4)cc3)c2n1` [AXC-950, (S)—N-(2-(1-(4-((6-amino-2-butoxy-8-oxo-7,8-dihydro-9H-purin-9-yl)methyl)benzyl)piperidin-4-yl)ethyl)-2-(2-(aminooxy)acetamido)-6-PEG8-amidohexanamide]: the EC50 under setting [1] amounted to 0.443 µM.

On to `CCCCOc1nc(N)c2[nH]c(=O)n(Cc3ccc(CN4CCC(CCNC(=O)[C@H](Cc5ccc(OP(=O)(O)O)cc5)NC(=O)CON)CC4)cc3)c2n1` [AXC-960, (S)-4-(3-((2-(1-(4-((6-amino-2-butoxy-8-oxo-7,8-dihydro-9H-purin-9-yl)methyl)benzyl)piperidin-4-yl)ethyl)amino)-2-(2-(aminooxy)acetamido)-3-oxopropyl)phenyl dihydrogen phosphate], for which the EC50 under setting [1] is 0.267 µM.

As to `CCCCOc1nc(N)c2[nH]c(=O)n(Cc3ccc(CN4CCC(CCNC(=O)[C@@H](N)CO)CC4)cc3)c2n1` [AXC-933, (S)-2-amino-N-(2-(1-(4-((6-amino-2-butoxy-8-oxo-7,8-dihydro-9H-purin-9-yl)methyl)benzyl)piperidin-4-yl)ethyl)-3-hydroxypropanamide], the EC50 under setting [1] amounted to 0.04 µM.

In the case of `CCCCOc1nc(N)c2[nH]c(=O)n(Cc3ccc(CN4CCC(CCNC(=O)[C@H](CCCCNC(=O)CON)NC(=O)CCOCCOCCOCCOCCOCCOCCOCCOCCOCCOCCOCCOC)CC4)cc3)c2n1` [AXC-940, (S)—N-(2-(1-(4-((6-amino-2-butoxy-8-oxo-7,8-dihydro-9H-purin-9-yl)methyl)benzyl)piperidin-4-yl)ethyl)-6-(2-(aminooxy)acetamido)-2-PEG12-amidohexanamide], the half-maximal effective concentration (EC50) under setting [1] was determined as 0.644 µM.

On to `CCCCOc1nc(N)c2[nH]c(=O)n(Cc3ccc(CN4CCC(CCNC(=O)[C@@H](N)CCCCn5cc(CON)nn5)CC4)cc3)c2n1` [AXC-935, (S)-2-amino-N-(2-(1-(4-((6-amino-2-butoxy-8-oxo-7,8-dihydro-9H-purin-9-yl)methyl)benzyl)piperidin-4-yl)ethyl)-6-(4-((aminooxy)methyl)-1H-1,2,3-triazol-1-yl)hexanamide], for which the 50% effective concentration (EC50) under setting [1] came out at 0.04 µM.

`CCCCOc1nc(N)c2[nH]c(=O)n(Cc3ccc(CN4CCC(CCNC(=O)C(C)(C)NC)CC4)cc3)c2n1` [AXC-884, N-(2-(1-(4-((6-amino-2-butoxy-8-oxo-7H-purin-9(8H)-yl)methyl)benzyl)piperidin-4-yl)ethyl)-2-methyl-2-(methylamino)propanamide]: the concentration for a half-maximal effect (EC50) (Table 11, TLR7 activities, read-out: EC50) turned out to be 0.0713 µM.

For `CCCCc1nc2c(N)nc3cccnc3c2n1CCCCNC(=O)c1ccc(N)c(OC)c1` [AXC-736, 4-amino-N-(4-(4-amino-2-butyl-1H-imidazo[4,5-c][1,5]naphthyridin-1-yl)butyl)-3-methoxybenzamide], the EC50 (Table 10, read-out: TLR7 EC50) was 0.213 µM.

As for `CCCCOc1nc(N)c2[nH]c(=O)n(Cc3ccc(CN4CCC(CCNC(=O)[C@H](CCCCNC(=O)CCOCCOCCOCCOCCOCCOCCOCCOCCOCCOCCOCCOCCOCCOCCOCCOCCOCCOCCOCCOCCOCCOCCOCCOCCOCCOCCOCCOCCOCCOCCOCCOCCOCCOCCOCCOCCOC)NC(=O)CON)CC4)cc3)c2n1` [AXC-951, (S)—N-(2-(1-(4-((6-amino-2-butoxy-8-oxo-7,8-dihydro-9H-purin-9-yl)methyl)benzyl)piperidin-4-yl)ethyl)-2-(2-(aminooxy)acetamido)-6-(PEG37)hexanamide], under setting [1], the half-maximal effective concentration (EC50) came out at 0.842 µM.

Turning to `CCc1nc2c(N)nc3ccccc3c2n1CCCCNC(=O)/C=C/c1ccc(N(C)C)cc1` [AXC-739, (E)-N-(4-(4-amino-2-ethyl-1H-imidazo[4,5-c]quinolin-1-yl)butyl)-3-(4-(dimethylamino)phenyl)acrylamide], the EC50 (Table 10, read-out: TLR7 EC50) is 0.0282 µM.

For the compound `CCc1nc2c(N)nc3ccccc3c2n1CCCCNC(=O)c1ccc(N(C)C)cc1` [AXC-738, N-(4-(4-amino-2-ethyl-1H-imidazo[4,5-c]quinolin-1-yl)butyl)-4-(dimethylamino)benzamide], where the note is “Table 10, read-out: TLR7 EC50”, the EC50 is 0.0111 µM.

`CCCCOc1nc(N)c2[nH]c(=O)n(Cc3ccc(CN4CCC(CCN(CC(C)C)C(=O)CCOCCON)CC4)cc3)c2n1` [AXC-893, N-(2-(1-(4-((6-amino-2-butoxy-8-oxo-7H-purin-9(8H)-yl)methyl)benzyl)piperidin-4-yl)ethyl)-3-(2-(aminooxy)ethoxy)-N-isobutylpropanamide]: the EC50 (Table 13, TLR7, read-out: EC50) amounted to 3.12 µM.

Turning to `CCCCc1nc2c(N)nc3cccnc3c2n1CCCCNC(=O)c1cnccn1` [AXC-732, N-(4-(4-amino-2-butyl-1H-imidazo[4,5-c][1,5]naphthyridin-1-yl)butyl)pyrazine-2-carboxamide], for the setting “Table 10, read-out: TLR7 EC50”, the EC50 came out at 0.256 µM.

As to `CC(C)(C)OC(=O)NCCC1CCN(Cc2ccc(Cn3ccc4c5nc(N)ncc5ccc43)cc2)CC1` [AXC-968, tert-butyl (2-(1-(4-((2-amino-7H-pyrrolo[2,3-h]quinazolin-7-yl)methyl)benzyl)piperidin-4-yl)ethyl)carbamate], the EC50 (Core 3 compounds, assay not given, read-out: EC50) was more than 10 µM.

Turning to `CCCCOc1nc(N)c2[nH]c(=O)n(Cc3ccc(CN4CCC(CCNC(=O)[C@@H](CCCCNC(=O)CCOCCOCCOCCOCCOCCOCCOCCOC)NC(=O)CON)CC4)cc3)c2n1` [AXC-962, (R)—N-(2-(1-(4-((6-amino-2-butoxy-8-oxo-7,8-dihydro-9H-purin-9-yl)methyl)benzyl)piperidin-4-yl)ethyl)-2-(2-(aminooxy)acetamido)-6-(PEG8)amidohexanamide], the concentration for a half-maximal effect (EC50) under setting [1] stood at 0.453 µM.

Regarding `CCCCOc1nc(N)c2[nH]c(=O)n(Cc3ccc(N4CCC(CCNC(=O)CCOCCON)CC4)nc3)c2n1` [AXC-876, N-(2-(1-(5-((6-amino-2-butoxy-8-oxo-7H-purin-9(8H)-yl)methyl)pyridin-2-yl)piperidin-4-yl)ethyl)-3-(2-(aminooxy)ethoxy)propanamide], the EC50 was found to be 0.362 µM (Table 12, TLR7 agonists attached to a linker, read-out: TLR Agonist Payload + Linkers EC50); 0.362 µM (Table 15, drug linker, read-out: TLR Agonist + Linker (DL) - EC50); 0.245 µM (Table 15, pAF containing final metabolite, read-out: TLR Agonist + Linker + nnAA (DL-pAF) - EC50).

Take `CCCCOc1nc(N)c2[nH]c(=O)n(Cc3ccc(CN4CCC(CCNC(=O)[C@H](CCCCNC(=O)CON)NC(=O)CCOCCOCCOCCOCCOCCOCCOCCOCCOCCOCCOCCOCCOCCOCCOCCOCCOCCOCCOCCOCCOCCOCCOCCOC)CC4)cc3)c2n1` [AXC-924, (S)—N-(2-(1-(4-((6-amino-2-butoxy-8-oxo-7,8-dihydro-9H-purin-9-yl)methyl)benzyl)piperidin-4-yl)ethyl)-6-(2-(aminooxy)acetamido)-2-PEG24-amidohexanamide]: the concentration for a half-maximal effect (EC50) under setting [2] stood at 0.398 µM.

In the case of `CCCCc1nc2c(N)nc3ccccc3c2n1CCCCNC(=O)c1cc(F)c(NC(=O)[C@H](CCCNC(N)=O)NC(=O)[C@@H](NC(=O)CCOCCON)C(C)C)c(F)c1` [AXC-802, N-(4-(4-amino-2-butyl-1H-imidazo[4,5-c]quinolin-1-yl)butyl)-4-((S)-2-((S)-2-(3-(2-(aminooxy)ethoxy)propanamido)-3-methylbutanamido)-5-ureidopentanamido)-3,5-difluorobenzamide], the concentration for a half-maximal effect (EC50) (Table 10, read-out: TLR7 EC50) is more than 5 µM.

On to `CCCCOc1nc(N)c2[nH]c(=O)n(Cc3ccc(CN4CCC(CCNC(=O)[C@@H](N)Cc5ccc(Cn6cc(CON)nn6)cc5)CC4)cc3)c2n1` [AXC-931, (S)-2-amino-N-(2-(1-(4-((6-amino-2-butoxy-8-oxo-7,8-dihydro-9H-purin-9-yl)methyl)benzyl)piperidin-4-yl)ethyl)-3-(4-((4-((aminooxy)methyl)-1H-1,2,3-triazol-1-yl)methyl)phenyl)propanamide], for which the 50% effective concentration (EC50) under setting [1] was 0.49 µM.

On to `CCCCOc1nc(N)c2[nH]c(=O)n(Cc3ccc(CN4CCC(CCNC(=O)[C@H](CCCCNC(=O)CON)NC(=O)[C@H](C)NC(=O)[C@@H](N)C(C)C)CC4)cc3)c2n1` [AXC-923, (S)—N-(2-(1-(4-((6-amino-2-butoxy-8-oxo-7,8-dihydro-9H-purin-9-yl)methyl)benzyl)piperidin-4-yl)ethyl)-2-((S)-2-((S)-2-amino-3-methylbutanamido)propanamido)-6-(2-(aminooxy)acetamido)hexanamide], for which the concentration giving a half-maximal response (EC50) under setting [2] was determined as 0.434 µM.

Turning to `CCCCOc1nc(N)c2[nH]c(=O)n(Cc3ccc(CN4CCC(CCNC(=O)[C@@H](N)Cc5ccc(O)cc5)CC4)cc3)c2n1` [AXC-934, (S)-2-amino-N-(2-(1-(4-((6-amino-2-butoxy-8-oxo-7,8-dihydro-9H-purin-9-yl)methyl)benzyl)piperidin-4-yl)ethyl)-3-(4-hydroxyphenyl)propanamide], the concentration for a half-maximal effect (EC50) under setting [1] stood at 0.0103 µM.

For orientation: EC50 means the concentration that produces a half-maximal response.

Source of the values: patent US20230302150A1, “ANTIBODY-TLR AGONIST CONJUGATES, METHODS AND USES THEREOF” (Ambrx, Inc., priority 2020, published 2023).
